Reference: PMC10002963, “[4+2]-Cycloaddition to 5-Methylidene-Hydantoins and 5-Methylidene-2-Thiohydantoins in the Synthesis of Spiro-2-Chalcogenimidazolones” (International Journal of Molecular Sciences, 2023)
Converted amounts (≈) assume the structure as drawn. Like-named read-outs stand apart in the source and are kept apart here.

Key:
HEK293T cell line = assay: MTT cytotoxicity assay, HEK293T; type: cell-based, human
Procedure: (§1) Some of the obtained spiro-derivatives were tested for cytotoxicity using the standard MTT assay. Cytotoxicity was evaluated using the cell lines of various etiologies: breast cancer MCF7, human lung carcinoma A549, non-cancer human embryonic kidney cell line HEK293T, and non-cancer lung fibroblast VA13 cell line. Lung cancers and breast cancers are among the most common causes of tumor lesions and related death in the world, and non-cancerous cells were applied for the specificity of action evaluation. The results are shown in Table 5; the dose-response dependency graphs are available in Supplementary Information.
(§2) Cell cultures. Human embryonic kidney HEK293T cell line was kindly provided by Dr. E. Knyazhanskaya; immortalized human fibroblasts cell line VA13 was kindly provided by Dr. M. Rubtsova; human breast cancer cell line MCF7 and human lung adenocarcinoma cell line A549 were kindly provided by Dr. S. Dmitriev. MCF7, VA13, A549, and HEK293T cell lines were maintained in DMEM/F-12 (Thermo Fisher Scientific, Waltham, Massachusetts, USA) culture medium containing 10% fetal bovine serum (Thermo Fisher Scientific, Waltham, Massachusetts, USA) and 50 µg/mL penicillin and 0.05 mg/mL streptomycin at 37°C (Thermo Fisher Scientific, Waltham, Massachusetts, USA) in 5% CO2. Cells were maintained at 37°C in a humidified incubator MCO-18AC (Sanyo, Japan) supplied with 5% CO2. Cell cultures were tested for the absence of mycoplasma.
(§3) In Vitro Survival Assay (MTT Assay). The cytotoxicity was tested using the MTT (3-(4,5-dimethylthiazol-2-yl)2,5-diphenyl tetrazolium bromide) assay with some modifications. A total of 2500 cells per well for the MCF7, HEK293T cell lines, 3000 cells for the A549 cell line, or 4000 cells per well for the VA-13 cell line were plated out in 135 µL of DMEM-F12 media (Gibco, USA) in a 96-well plate and then incubated in the 5% CO2 incubator for first 20 h without treating. After this, 15 µL of media-DMSO solutions of tested substances were added to the cells (final DMSO concentrations in the media were 0,5% or less) and treated for65 h with 45 nM–100 µM (eight dilutions) of our substances (triplicate each) and doxorubicin as a control substance. Then the MTT reagent (Paneco LLC, Moscow, Russia) was added to cells up to the final concentration of 0.5 g/L (10 × stock solution in PBS was used), and cells were incubated for 2 h at 37 °C under an atmosphere of 5% CO2. Then the MTT solution was discarded, and 140 µL of DMSO (PharmaMed LLC, Russia) was added. The plates were swayed on a shaker (200 rpm) to dissolve the formazan. The absorbance was measured using a microplate reader (VICTOR ×5 Light Plate Reader, PerkinElmer, USA) at a wavelength of 555 nm (in order to measure formazan concentration). The results were used to construct dose-response graphs and to estimate IC50absvalues (IC50abs is the concentration resulting in a two-fold decrease in the number of cells in comparison with the untreated cells) and, in some cases, IC50 values (IC50 is the concentration resulting in half of the maximal cytotoxic effect) with GraphPadSoftware, Inc., San Diego, CA, USA.

MCF7 cell line = assay: MTT cytotoxicity assay, MCF7; type: cell-based, human
Procedure: as §1, §2, §3

VA13 cell line = assay: MTT cytotoxicity assay, VA13; type: cell-based, human
Procedure: as §1, §2, §3

A549 cell line = assay: MTT cytotoxicity assay, A549; type: cell-based, human
Procedure: as §1, §2, §3

E. coli BW25113 DTC = assay: Minimal inhibitory concentration, E. coli BW25113 DTC; type: cell-based, Escherichia coli
Procedure: (§4) Then the minimal inhibitory concentration (MIC) was measured for E. coli BW25113 DTC and E. coli K-12 (WT) for the 12 most bacteriotoxic compounds from the plate test.
(§5) Determination of Minimal Inhibitory Concentration (MIC). MIC values were determined by monitoring growth in 96-well plates of E. coli cultures exposed to serial dilutions of compounds. Specifically, overnight E. coli BW25113 DTC and K12 cultures were diluted in 96-well plates to an OD590 of 0.01 in LB medium. The wells were then supplemented with the solution of each tested compound at concentrations of 1 mM, 500 µM, 250 µM, 125 µM, 62.5 µM, 31.25 µM, 15.63 µM, 7.81 µM, 3.91 µM, and 1.95 µM. Then the plates were incubated with shaking (200 r.p.m.) overnight at 37°C, and cell growth was assessed by scanning OD590 each well with a VictorX5 reader.

E. coli K-12 (WT) = assay: Minimal inhibitory concentration, E. coli K-12; type: cell-based, Escherichia coli; conditions: LB medium, overnight 37°C, >1000 = inactive in this test
Procedure: as §4, §5

[1] = 65-h treatment, Cmax 100 µM, read-out: IC50abs
[2] = MCF7, 65-h treatment, MTT, Cmax 100 µM, read-out: IC50abs
[3] = VA13, 65-h treatment, MTT, Cmax 100 µM, read-out: IC50abs
[4] = A549, 65-h treatment, MTT, Cmax 100 µM, read-out: IC50abs
[5] = E. coli BW25113 DTC, LB medium, overnight 37°C, >1000 = inactive in this test
[6] = Table S1, read-out: IC50 (concentration resulting in half of the maximal cytotoxic effect)
[7] = MCF7, MTT, Table S1, read-out: IC50 (concentration resulting in half of the maximal cytotoxic effect)
[8] = VA13, MTT, Table S1, read-out: IC50 (concentration resulting in half of the maximal cytotoxic effect)
[9] = A549, MTT, Table S1, read-out: IC50 (concentration resulting in half of the maximal cytotoxic effect)
[10] = Homo sapiens, HEK-293T, 65-h treatment, Cmax 100 µM, read-out: IC50abs
[11] = Homo sapiens, VA-13, VA13, 65-h treatment, MTT, Cmax 100 µM, read-out: IC50abs
[12] = Homo sapiens, A549, 65-h treatment, MTT, Cmax 100 µM, read-out: IC50abs
[13] = Homo sapiens, MCF7, 65-h treatment, MTT, Cmax 100 µM, read-out: IC50abs

Row | SMILES | IC50 (HEK293T cell line; [1]) [µM] | IC50 (MCF7 cell line; [2]) [µM] | IC50 (VA13 cell line; [3]) [µM] | IC50 (A549 cell line; [4]) [µM] | IC50 (HEK293T cell line; [10]) [µM] | IC50 (VA13 cell line; [11]) [µM] | IC50 (A549 cell line; [12]) [µM] | IC50 (MCF7 cell line; [13]) [µM] | also measured
1 | O=C1NC2(C(=O)N1c1ccccc1)C1C=CC(C1)C2Br (stereo not drawn) [Compound 40a] | 56.4 ± 2.5 | > 100 | > 100 | > 100 |  |  |  |  | MIC (E. coli BW25113 DTC; [5]): 1000 µM (≈ 333 µg/mL); MIC (E. coli K-12 (WT)): >1000 µM
2 | CC1=C(C)CC2(CC1)NC(=S)N(c1ccccc1Cl)C2=O (racemic) [Compound 55] | ~5 | ~100 | > 100 | ~10 |  |  |  |  | IC50 (HEK293T cell line; [6]): 3.1 µM; IC50 (MCF7 cell line; [7]): 1.5 µM; IC50 (VA13 cell line; [8]): 1.9 µM; IC50 (A549 cell line; [9]): 2.1 µM; MIC (E. coli BW25113 DTC; [5]): >1000 µM; MIC (E. coli K-12 (WT)): >1000 µM
3 | CC1=C(C)CC2(CC1)NC(=S)N(c1ccccc1F)C2=O (racemic) [Compound 54] | 29.6 ± 3 |  | > 100 | 49.5 ± 5 |  |  |  |  | 
4 | O=C1N(c2ccccc2)C(=S)NC12CC1C=CC2CC1 (stereo not drawn) [Compound 45a] |  |  |  |  | 21.3 ± 2.3 | > 100 | 85.2 ± 10.1 |  | IC50 (MCF7 cell line; Homo sapiens, MCF7, 65-h treatment, MTT, Cmax 100 µM, marked **, read-out: IC50abs, calculated by data extrapolation, exceeds Cmax): > 100 µM
5 | O=C1NC2(C(=O)N1c1ccccc1)C1C=CC(C1)C2I (stereo not drawn) [Compound 41a] | 69.1 ± 4.8 | > 100 | > 100 | > 100 |  |  |  |  | MIC (E. coli BW25113 DTC; [5]): 1000 µM (≈ 380 µg/mL); MIC (E. coli K-12 (WT)): >1000 µM
6 | Cc1cccc(N2C(=O)C3(CC4C=CC3C4)NC2=S)c1 (stereo not drawn) [Compound 37a] | > 100 | > 100 | > 100 | > 100 |  |  |  |  | 
7 | CC1=C(C)CC2(CC1)NC(=S)N(c1ccc(F)c(Cl)c1)C2=O (stereo not drawn) [Compound 62] |  |  |  |  | 6.8 ± 0.3 | 9.8 ± 0.4 | 7.9 ± 0.4 | 11.1 ± 0.6 | MIC (E. coli BW25113 DTC; Escherichia coli, BW25113): 1000 µM (≈ 339 µg/mL); MIC (E. coli K-12 (WT); Escherichia coli): > 1000 µM
8 | O=C1N[C@@]2(C[C@@H]3C=C[C@H]2C3)C(=O)N1c1ccccc1 [Compound 28a] |  |  |  |  | > 100 | > 100 | > 100 | > 100 | MIC (E. coli BW25113 DTC; Escherichia coli, BW25113): > 1000 µM; MIC (E. coli K-12 (WT); Escherichia coli): > 1000 µM
9 | COc1ccc(N2C(=O)C3(CC4C=CC3C4)NC2=S)cc1 (stereo not drawn) [Compound 39b] |  | > 100 | > 100 | > 100 |  |  |  |  | 
10 | COc1cccc(N2C(=O)C3(CCC(C)=C(C)C3)NC2=S)c1 (stereo not drawn) [Compound 57] |  |  |  |  | 18.3 ± 1.7 | 80.8 ± 13.7 | 35.4 ± 4.8 | 50.6 ± 5.2 | 
11 | O=C1N[C@@]2(C[C@@H]3C=C[C@H]2C3)C(=O)N1c1ccccc1Cl [Compound 75] |  |  |  |  | 99 ± 11.1 | > 100 | > 100 | > 100 | MIC (E. coli BW25113 DTC; Escherichia coli, BW25113): 500 µM (≈ 144 µg/mL); MIC (E. coli K-12 (WT); Escherichia coli): > 1000 µM
12 | O=C1N(c2ccccc2)C(=S)NC12CC1C=CC2C1 (stereo not drawn) [Compound 34a] |  |  |  |  | 83 ± 3.7 | > 100 | > 100 | > 100 | 
13 | CC1=C(C)CC2(CC1)NC(=S)N(c1ccc(F)cc1)C2=O (racemic) [Compound 58] | 13.7 ± 2.3 | 59 ± 13.3 | 45 ± 7.5 | 23.2 ± 3.5 |  |  |  |  | 
14 | CC1=C(C)CC2(CC1)NC(=S)N(c1ccc(Cl)cc1)C2=O (stereo not drawn) [Compound 59] | 4.4 ± 0.6 | 76.6 ± 16 | 52.6 ± 7.8 | 26.2 ± 3.9 |  |  |  |  | 
15 | COc1cccc(N2C(=O)NC3(CCC(C)=C(C)C3)C2=O)c1 (stereo not drawn) [Compound 77] |  |  |  |  |  |  |  |  | MIC (E. coli BW25113 DTC; Escherichia coli, BW25113): 125 µM (≈ 37.5 µg/mL)
16 | COc1cccc(N2C(=O)C3(CC4C=CC3C4)NC2=S)c1 (stereo not drawn) [Compound 38a] |  | > 100 | > 100 | > 100 |  |  |  |  | 
17 | Cc1cccc(N2C(=O)N[C@@]3(C[C@@H]4C=C[C@H]3C4)C2=O)c1 [Compound 76] |  |  |  |  | 48.6 ± 2.4 |  |  | 86.4 ± 7.3 | IC50 (VA13 cell line; Homo sapiens, VA-13, VA13, 65-h treatment, MTT, Cmax 100 µM, marked **, read-out: IC50abs, calculated by data extrapolation, exceeds Cmax): > 100 µM; IC50 (A549 cell line; Homo sapiens, A549, 65-h treatment, MTT, Cmax 100 µM, marked **, read-out: IC50abs, calculated by data extrapolation, exceeds Cmax): > 100 µM; MIC (E. coli BW25113 DTC; Escherichia coli, BW25113): 125 µM (≈ 33.5 µg/mL); MIC (E. coli K-12 (WT); Escherichia coli): > 1000 µM
18 | CC1=C(C)CC2(CC1)NC(=S)N(c1c(C)cccc1C)C2=O (racemic) [Compound 61] | ~4 | ~100 |  | ~10 |  |  |  |  | IC50 (HEK293T cell line; [6]): 1.4 µM; IC50 (MCF7 cell line; [7]): 0.9 µM; IC50 (VA13 cell line; [8]): 0.4 µM; IC50 (A549 cell line; [9]): 4.2 µM
19 | COc1ccc(N2C(=O)C3(CCC(C)=C(C)C3)NC2=S)cc1 (racemic) [Compound 60] | 10.2 ± 1.3 | 98.3 ± 19.8 | 75.3 ± 17 | 52.2 ± 5.7 |  |  |  |  | MIC (E. coli BW25113 DTC; [5]): >1000 µM; MIC (E. coli K-12 (WT)): >1000 µM
20 | CC1=C(C)CC2(CC1)NC(=S)N(c1cccc(C)c1)C2=O (racemic) [Compound 56] | 22 ± 8 |  | 98.7 ± 17.6 | > 100 |  |  |  |  | 
21 | O=C1N(c2ccccc2F)C(=S)NC12CC1C=CC2C1 (stereo not drawn) [Compound 35b] | 87.4 ± 9.9 | > 100 | > 100 | > 100 |  |  |  |  | MIC (E. coli BW25113 DTC; [5]): 1000 µM (≈ 288 µg/mL); MIC (E. coli K-12 (WT)): >1000 µM
22 | Cc1cccc(C)c1N1C(=O)C2(CC3C=CC2CC3)NC1=S (stereo not drawn) [Compound 51a] |  |  |  |  | > 100 | > 100 | > 100 | > 100 | MIC (E. coli BW25113 DTC; Escherichia coli, BW25113): > 1000 µM; MIC (E. coli K-12 (WT); Escherichia coli): > 1000 µM
23 | O=C1NC2(CC3C=CC2C3)C(=O)N1c1ccccc1 (stereo not drawn) [Compound 28b] | > 100 | > 100 | > 100 | > 100 |  |  |  |  | MIC (E. coli BW25113 DTC; [5]): >1000 µM; MIC (E. coli K-12 (WT)): >1000 µM
24 | CSC1=NC2(CC3C=CC2C3)C(=O)N1c1ccccc1 (stereo not drawn) [Compound 72] |  |  |  |  | 60.1 ± 3.4 | > 100 | > 100 | > 100 | MIC (E. coli BW25113 DTC; Escherichia coli, BW25113): 500 µM (≈ 142 µg/mL); MIC (E. coli K-12 (WT); Escherichia coli): > 1000 µM
